The text below walks through data of publication PMC4658182, “The Synthetic Antimicrobial Peptide 19-2.5 Interacts with Heparanase and Heparan Sulfate in Murine and Human Sepsis” (PLoS ONE, 2015).

A short description of series [1]: Isothermal titration calorimetry, binding to HS-fragments. To be noted: vs peptide 19–2.5 (Table 2). On the procedure: Isothermal titration calorimetry (ITC) experiments were performed as previously described. Briefly, the binding of peptide 19–2.5 to heparanase or HS-fragments was recorded by measuring the enthalpy change of the reaction at 37°C. For this, a total of 100 μg/ml heparanase (R&D Systems Europe Ltd., Abingdon, United Kingdom) and 200 μg/ml HS-fragments (H7640 Sigma-Aldrich, St. Louis, MO, USA) were dispersed into the calorimetric cell, and 2 mM peptide 19–2.5 was titrated to this dispersion stepwise in 3 μl portions. After exploring experiments, the concentration of HS was 100 μg/ml titrated with 1.5 μl of peptide 19–2.5 (2 mM) 20 times at 37°C.
Fig 5 Isothermal titration calorimetry (ITC). For the ITC experiments, 2 mM peptide 19–2.5 was titrated to this dispersion stepwise in 3 μl portions into (A) 200 μg/ml heparan sulfate-fragments (HS) and (B) 100 μg/ml heparanase (Hep). In each titration, the resulting heat signals P were recorded (peak downwards are exothermic, peaks upwards endothermic reactions) against time (min) and presented in the top parts of Fig 5A and 5B. The integrated enthalpy changes ΔH versus [peptide]:[HS-fragments] (A) and [peptide]:[heparanase] (B) concentration ratios of the single titrations are illustrated in the bottom parts of Fig 5A and 5B.

For series [2] the following is noted: cited from earlier work. The source says: Sepsis is a common and life-threatening disease especially in medical and surgical intensive care patients with mortality rates up to 60% [1]. It is characterized by a systemic inflammatory response to infection triggered by both pathogen-associated molecular patterns (PAMPs) as well as endogenous danger-associated molecular patterns (DAMPs). Here, heparan sulfate and the enzyme heparanase play key roles. Heparan sulfates are linear polysaccharides composed of repeating disaccharide subunits, which are D-glucosamine and D-glucuronic acid in their unmodified form. They are attached ...

The target of the next series is heparanase (UniProt Q9Y251). The experiment in a line: ITC; 2 mM peptide 19-2.5 titrated stepwise in 3 ul portions into 100 ug/ml heparanase in the calorimetric cell, 37 °C.
Sequence of heparanase (Q9Y251 36-543): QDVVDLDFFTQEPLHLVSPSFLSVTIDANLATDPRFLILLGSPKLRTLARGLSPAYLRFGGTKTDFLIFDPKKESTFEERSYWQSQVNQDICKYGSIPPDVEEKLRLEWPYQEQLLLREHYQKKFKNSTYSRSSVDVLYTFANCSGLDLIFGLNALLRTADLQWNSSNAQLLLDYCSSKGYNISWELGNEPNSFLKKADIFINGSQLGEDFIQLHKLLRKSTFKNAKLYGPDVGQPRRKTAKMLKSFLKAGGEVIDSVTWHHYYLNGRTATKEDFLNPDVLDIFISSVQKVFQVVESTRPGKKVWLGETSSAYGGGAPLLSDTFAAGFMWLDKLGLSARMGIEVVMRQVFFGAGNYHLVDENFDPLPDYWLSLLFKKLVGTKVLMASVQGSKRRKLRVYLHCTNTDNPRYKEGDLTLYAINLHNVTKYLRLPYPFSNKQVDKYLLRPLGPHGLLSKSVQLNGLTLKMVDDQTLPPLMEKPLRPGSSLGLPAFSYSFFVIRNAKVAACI

Turning to “GCKKYRRFRWKFKGK [peptide 19–2.5gek, peptide variant with the hydrophobic C-terminal of the peptide, FWFWG, removed]”, in series [1], the “binding constant to HS-fragments on removal of C-terminal FWFWG” value is given as “dramatically decreases”.
With “LL-37: naturally occurring antimicrobial cathelicidin peptide LL-37”, the “neutralization of pro-inflammatory action of PAMPs and DAMPs” value in series [2] was “neutralizes the pro-inflammatory action of PAMPs and DAMPs”. Further, in series [2] (limits therapeutic use), the toxicity result was “intrinsic toxicity”.
GCKKYRRFRWKFKGKFWFWG [synthetic antimicrobial peptide 19-2.5] displayed a dH (at the beginning of the titration) with heparanase of -5.98 kcal/mol.
